Reference: ChEMBL document CHEMBL1828619, “Identification of pyridazin-3-one derivatives as potent, selective histamine H₃ receptor inverse agonists with robust wake activity” (Bioorg Med Chem Lett, 2011)
The source made the active and inactive calls. The rule behind the calls is not given here.

Experiments:
[1] = AUC (0 to 6 hrs) in rat at 5 mg/kg, po; format: ADME, organism-based; set-up: time < 6 hr, dose 5 mg/kg, route oral; settings: plasma
[2] = Ratio of drug level in brain to plasma in rat at 5 mg/kg, po; format: ADME, organism-based; set-up: dose 5 mg/kg, route oral; settings: read-out: BPR
[3] = Half life in rat at 5 mg/kg, po after 6 hrs; format: ADME, organism-based; set-up: dose 5 mg/kg, route oral; settings: in vivo
[4] = Half life in human liver microsomes; format: ADME, Microsome
Cytochrome P450 3A4 = Cytochrome P450 3A4 (Homo sapiens, UniProt P08684); test: Inhibition of CYP3A4; format: ADME
Sequence of Cytochrome P450 3A4 (P08684 whole entry): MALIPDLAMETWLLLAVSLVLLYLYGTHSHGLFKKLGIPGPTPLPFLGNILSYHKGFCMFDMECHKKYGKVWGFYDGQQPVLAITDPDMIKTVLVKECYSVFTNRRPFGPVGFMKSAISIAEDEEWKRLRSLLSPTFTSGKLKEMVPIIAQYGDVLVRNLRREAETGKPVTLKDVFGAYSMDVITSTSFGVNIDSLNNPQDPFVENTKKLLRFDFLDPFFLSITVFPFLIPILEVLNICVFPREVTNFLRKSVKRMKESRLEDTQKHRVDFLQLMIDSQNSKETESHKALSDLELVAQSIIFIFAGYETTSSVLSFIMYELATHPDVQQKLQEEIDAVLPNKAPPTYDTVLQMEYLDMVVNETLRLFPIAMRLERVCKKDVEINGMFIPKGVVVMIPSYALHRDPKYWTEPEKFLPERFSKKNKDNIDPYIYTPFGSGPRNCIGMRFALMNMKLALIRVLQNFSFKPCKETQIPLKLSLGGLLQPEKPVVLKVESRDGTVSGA

Histamine H3 receptor [5] = molecular target: T1, Histamine H3 receptor (Homo sapiens, UniProt Q9Y5N1); test: Displacement of [3H]NAMH from human cloned histamine 3 receptor expressed in CHO cells; format: cell-based
T1 sequence (Q9Y5N1 whole entry): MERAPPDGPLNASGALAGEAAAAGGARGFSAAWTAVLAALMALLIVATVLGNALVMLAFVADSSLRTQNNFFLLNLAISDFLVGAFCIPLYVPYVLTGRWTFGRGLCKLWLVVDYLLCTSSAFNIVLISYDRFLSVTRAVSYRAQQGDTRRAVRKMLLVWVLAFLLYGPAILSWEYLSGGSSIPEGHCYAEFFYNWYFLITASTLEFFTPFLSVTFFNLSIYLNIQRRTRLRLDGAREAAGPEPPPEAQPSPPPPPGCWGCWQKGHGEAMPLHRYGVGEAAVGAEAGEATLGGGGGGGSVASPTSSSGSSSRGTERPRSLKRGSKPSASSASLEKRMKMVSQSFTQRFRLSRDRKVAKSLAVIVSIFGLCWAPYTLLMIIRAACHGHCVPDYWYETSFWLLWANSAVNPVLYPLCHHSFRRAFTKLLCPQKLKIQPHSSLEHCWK

[6] = molecular target: Voltage-gated inwardly rectifying potassium channel KCNH2 (Homo sapiens, UniProt Q12809); test: Inhibition of human ERG by patch express assay
Sequence of Voltage-gated inwardly rectifying potassium channel KCNH2 (Q12809 whole entry): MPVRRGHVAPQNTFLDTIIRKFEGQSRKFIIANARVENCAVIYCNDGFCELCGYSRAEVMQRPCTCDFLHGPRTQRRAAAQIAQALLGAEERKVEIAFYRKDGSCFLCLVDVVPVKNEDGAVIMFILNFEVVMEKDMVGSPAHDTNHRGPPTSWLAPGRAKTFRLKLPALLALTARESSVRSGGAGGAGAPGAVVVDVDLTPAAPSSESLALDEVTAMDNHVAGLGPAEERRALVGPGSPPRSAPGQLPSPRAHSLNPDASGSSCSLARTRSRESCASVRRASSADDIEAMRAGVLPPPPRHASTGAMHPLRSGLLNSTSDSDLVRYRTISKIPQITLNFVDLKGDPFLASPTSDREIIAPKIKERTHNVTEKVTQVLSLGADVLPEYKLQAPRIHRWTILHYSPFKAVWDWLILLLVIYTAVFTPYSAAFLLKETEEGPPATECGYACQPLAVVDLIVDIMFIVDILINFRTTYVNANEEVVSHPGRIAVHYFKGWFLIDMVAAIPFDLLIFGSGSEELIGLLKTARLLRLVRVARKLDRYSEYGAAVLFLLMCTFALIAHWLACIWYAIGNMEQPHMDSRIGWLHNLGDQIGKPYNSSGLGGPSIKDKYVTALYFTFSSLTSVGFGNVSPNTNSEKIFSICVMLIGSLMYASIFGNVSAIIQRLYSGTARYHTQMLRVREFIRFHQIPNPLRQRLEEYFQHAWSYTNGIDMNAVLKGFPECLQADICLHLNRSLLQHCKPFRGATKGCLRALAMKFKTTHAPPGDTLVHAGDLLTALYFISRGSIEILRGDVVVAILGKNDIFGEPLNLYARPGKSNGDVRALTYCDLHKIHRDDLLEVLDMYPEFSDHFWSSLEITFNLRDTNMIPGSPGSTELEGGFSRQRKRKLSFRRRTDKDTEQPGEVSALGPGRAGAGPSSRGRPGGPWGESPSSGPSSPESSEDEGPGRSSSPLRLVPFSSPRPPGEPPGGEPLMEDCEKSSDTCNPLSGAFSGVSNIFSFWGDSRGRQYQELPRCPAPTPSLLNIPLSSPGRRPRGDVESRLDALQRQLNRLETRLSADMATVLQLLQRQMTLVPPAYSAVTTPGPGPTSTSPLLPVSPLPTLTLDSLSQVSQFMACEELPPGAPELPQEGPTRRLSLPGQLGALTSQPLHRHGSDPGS

Cytochrome P450 2C19 = Cytochrome P450 2C19 (Homo sapiens, UniProt P33261); test: Inhibition of CYP2C19; format: ADME
Sequence of Cytochrome P450 2C19 (P33261 whole entry): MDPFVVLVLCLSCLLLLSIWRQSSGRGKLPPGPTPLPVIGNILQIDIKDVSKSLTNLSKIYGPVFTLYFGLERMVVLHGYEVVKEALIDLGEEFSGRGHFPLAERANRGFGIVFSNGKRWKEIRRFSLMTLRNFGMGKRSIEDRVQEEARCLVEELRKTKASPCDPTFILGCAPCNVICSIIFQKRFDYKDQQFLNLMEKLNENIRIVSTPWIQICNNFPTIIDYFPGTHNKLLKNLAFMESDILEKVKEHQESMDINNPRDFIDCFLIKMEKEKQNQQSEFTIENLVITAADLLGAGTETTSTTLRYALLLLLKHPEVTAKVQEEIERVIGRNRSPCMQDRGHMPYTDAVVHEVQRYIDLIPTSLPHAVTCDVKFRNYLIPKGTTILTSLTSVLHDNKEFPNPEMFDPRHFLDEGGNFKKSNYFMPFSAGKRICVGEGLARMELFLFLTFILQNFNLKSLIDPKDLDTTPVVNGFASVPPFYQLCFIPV

[7] = Half life in dog liver microsomes; format: ADME, Canis lupus familiaris, Microsome
Histamine H3 receptor [8] = molecular target: Histamine H3 receptor (Rattus norvegicus, UniProt Q9QYN8); test: Displacement of [3H]NAMH from rat cloned histamine 3 receptor expressed in CHO cells; format: cell-based
Sequence of Histamine H3 receptor (Rattus norvegicus, UniProt Q9QYN8) (Q9QYN8 whole entry): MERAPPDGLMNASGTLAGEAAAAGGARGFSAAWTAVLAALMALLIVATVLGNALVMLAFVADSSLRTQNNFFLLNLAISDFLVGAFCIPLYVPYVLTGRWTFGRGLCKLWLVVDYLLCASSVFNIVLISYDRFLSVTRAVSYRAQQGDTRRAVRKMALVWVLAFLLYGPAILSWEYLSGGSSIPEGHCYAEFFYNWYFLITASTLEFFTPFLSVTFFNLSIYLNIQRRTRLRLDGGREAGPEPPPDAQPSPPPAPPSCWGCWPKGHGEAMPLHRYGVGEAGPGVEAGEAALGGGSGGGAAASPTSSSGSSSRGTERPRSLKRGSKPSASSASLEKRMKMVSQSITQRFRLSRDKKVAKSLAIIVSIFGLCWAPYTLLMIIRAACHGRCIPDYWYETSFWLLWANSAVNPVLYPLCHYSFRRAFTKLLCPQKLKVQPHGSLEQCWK

Cytochrome P450 2D6 = Cytochrome P450 2D6 (Homo sapiens, UniProt P10635); test: Inhibition of CYP2D6; format: ADME
Sequence of Cytochrome P450 2D6 (P10635 whole entry): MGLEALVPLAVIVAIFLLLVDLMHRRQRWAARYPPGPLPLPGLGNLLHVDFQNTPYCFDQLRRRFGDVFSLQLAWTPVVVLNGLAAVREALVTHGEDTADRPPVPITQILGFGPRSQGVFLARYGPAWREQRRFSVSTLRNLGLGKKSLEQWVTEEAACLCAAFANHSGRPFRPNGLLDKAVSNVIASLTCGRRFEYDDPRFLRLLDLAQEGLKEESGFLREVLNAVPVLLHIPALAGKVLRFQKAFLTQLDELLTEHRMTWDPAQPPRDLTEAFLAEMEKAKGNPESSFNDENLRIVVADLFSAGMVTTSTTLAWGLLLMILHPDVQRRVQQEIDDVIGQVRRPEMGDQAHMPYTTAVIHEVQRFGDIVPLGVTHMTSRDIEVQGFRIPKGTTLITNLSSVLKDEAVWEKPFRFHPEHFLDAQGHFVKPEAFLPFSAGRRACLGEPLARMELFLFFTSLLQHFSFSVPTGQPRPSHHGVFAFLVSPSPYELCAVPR

[9] = Ratio of drug level in brain to plasma in iv dosed rat; format: ADME, organism-based; settings: read-out: BPR
[10] = Half life in iv dosed rat; format: ADME, organism-based; settings: in vivo
[11] = Half life in rat liver microsomes; format: ADME, Microsome
[12] = Half life in monkey liver microsomes; format: ADME, Macaca mulatta, Microsome; settings: rhesus monkey
Cytochrome P450 1A2 = molecular target: T2, Cytochrome P450 1A2 (Homo sapiens, UniProt P05177); test: Inhibition of CYP1A2; format: ADME
T2 sequence (P05177 whole entry): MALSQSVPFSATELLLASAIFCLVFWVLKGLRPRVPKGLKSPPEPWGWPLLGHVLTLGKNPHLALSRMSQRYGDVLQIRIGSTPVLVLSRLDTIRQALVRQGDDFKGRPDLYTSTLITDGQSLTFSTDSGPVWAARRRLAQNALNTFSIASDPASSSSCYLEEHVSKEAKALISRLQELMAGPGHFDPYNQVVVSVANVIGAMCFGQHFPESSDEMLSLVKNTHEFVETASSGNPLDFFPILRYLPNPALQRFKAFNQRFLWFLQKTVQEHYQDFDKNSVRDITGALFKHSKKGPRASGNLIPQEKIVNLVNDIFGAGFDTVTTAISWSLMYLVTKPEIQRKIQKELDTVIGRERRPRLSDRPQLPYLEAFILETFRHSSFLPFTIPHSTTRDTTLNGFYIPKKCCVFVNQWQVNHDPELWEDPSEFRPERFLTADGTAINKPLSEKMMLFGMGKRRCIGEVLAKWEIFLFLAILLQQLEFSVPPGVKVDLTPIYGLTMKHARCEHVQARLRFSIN

Cytochrome P450 2C9 = Cytochrome P450 2C9 (Homo sapiens, UniProt P11712); test: Inhibition of CYP2C9; format: ADME
Sequence of Cytochrome P450 2C9 (P11712 whole entry): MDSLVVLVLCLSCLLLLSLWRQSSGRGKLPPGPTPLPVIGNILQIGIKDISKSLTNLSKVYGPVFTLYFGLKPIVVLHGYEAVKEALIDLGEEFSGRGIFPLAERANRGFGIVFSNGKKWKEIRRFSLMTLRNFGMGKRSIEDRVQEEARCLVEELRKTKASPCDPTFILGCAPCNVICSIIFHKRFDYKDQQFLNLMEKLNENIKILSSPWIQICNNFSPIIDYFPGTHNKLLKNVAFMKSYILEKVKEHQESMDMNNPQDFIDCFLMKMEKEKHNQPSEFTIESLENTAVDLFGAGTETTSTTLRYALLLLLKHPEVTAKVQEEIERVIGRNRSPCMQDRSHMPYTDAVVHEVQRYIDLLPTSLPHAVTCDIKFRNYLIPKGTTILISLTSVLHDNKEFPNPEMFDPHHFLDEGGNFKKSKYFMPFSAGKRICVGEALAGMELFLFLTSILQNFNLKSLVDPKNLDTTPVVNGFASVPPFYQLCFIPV

[13] = Clearance in iv dosed rat; format: ADME, organism-based; settings: in vivo
[14] = Oral bioavailability in rat; format: ADME, organism-based; settings: in vivo
[15] = Half life in mouse liver microsomes; format: ADME, Microsome
[16] = Volume of distribution in iv dosed rat; format: ADME, organism-based; settings: in vivo
[17] = Cmax in rat at 5 mg/kg, po after 6 hrs; format: ADME, organism-based; set-up: dose 5 mg/kg, route oral; settings: in vivo
Rattus norvegicus [18] = test: Induction of wake promoting activity in ip dosed EEG/EMG Sprague-Dawley rat model assessed as increase in waking time after 4 hrs; format: functional, organism-based
[19] = molecular target: Histamine H1 receptor (Homo sapiens) (UniProt P35367); test: Inhibition of human histamine H1 receptor at 10 uM
Rattus norvegicus [20] = test: Induction of wake promoting activity in EEG/EMG Sprague-Dawley rat model assessed as increase in waking time at 10 mg/kg, ip after 4 hrs; format: functional; settings: route intraperitoneal
[21] = Clearance in rat at 1 mg/kg, iv after 6 hrs; format: ADME, organism-based; set-up: dose 1 mg/kg, route intravenous; settings: in vivo
[22] = Solubility of the compound at pH 7.4; format: physicochemical; settings: buffer
Histamine H3 receptor [23] = molecular target: T1, Histamine H3 receptor; test: Inverse activity against human histamine 3 receptor by [35S]GTPgammaS binding assay; format: functional
[24] = molecular target: Sodium-dependent noradrenaline transporter (Homo sapiens) (UniProt P23975); test: Inhibition of NET at 10 uM
Sequence of Sodium-dependent noradrenaline transporter (Homo sapiens) (P23975 whole entry): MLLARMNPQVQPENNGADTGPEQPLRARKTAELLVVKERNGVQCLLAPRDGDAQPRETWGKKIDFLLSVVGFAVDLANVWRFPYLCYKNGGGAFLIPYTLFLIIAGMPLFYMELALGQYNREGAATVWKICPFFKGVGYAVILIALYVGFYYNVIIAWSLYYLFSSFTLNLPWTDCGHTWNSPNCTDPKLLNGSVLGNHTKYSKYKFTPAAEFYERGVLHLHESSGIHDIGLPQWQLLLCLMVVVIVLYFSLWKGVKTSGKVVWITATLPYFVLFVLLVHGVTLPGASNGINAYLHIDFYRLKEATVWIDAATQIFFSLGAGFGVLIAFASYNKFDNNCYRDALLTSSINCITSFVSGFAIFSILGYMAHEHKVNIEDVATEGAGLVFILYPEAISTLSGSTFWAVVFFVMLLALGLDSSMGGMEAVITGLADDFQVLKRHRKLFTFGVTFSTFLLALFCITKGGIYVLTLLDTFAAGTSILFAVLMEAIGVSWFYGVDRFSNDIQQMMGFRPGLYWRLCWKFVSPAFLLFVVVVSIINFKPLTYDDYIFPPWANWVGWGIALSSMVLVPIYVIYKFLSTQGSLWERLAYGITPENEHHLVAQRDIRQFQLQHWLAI

[25] = Oral bioavailability in rat at 5 mg/kg after 6 hrs; format: ADME, organism-based; settings: in vivo
Histamine H3 receptor [26] = molecular target: T1, Histamine H3 receptor; test: Antagonist activity at human histamine 3 receptor by [35S]GTPgammaS binding assay; format: functional
[27] = Solubility of the compound at pH 2; format: physicochemical; settings: buffer
Rattus norvegicus [28] = test: Induction of wake promoting activity in EEG/EMG Sprague-Dawley rat model assessed as increase in waking time at 30 mg/kg, ip after 4 hrs; format: functional; settings: route intraperitoneal
[29] = Half life in rat at 1 mg/kg, iv after 6 hrs; format: ADME, organism-based; set-up: dose 1 mg/kg, route intravenous; settings: in vivo
[30] = Volume of distribution in rat at 1 mg/kg, iv after 6 hrs; format: ADME, organism-based; set-up: dose 1 mg/kg, route intravenous; settings: in vivo
[31] = molecular target: Histamine H4 receptor (Homo sapiens) (UniProt Q9H3N8); test: Inhibition of human histamine H4 receptor at 10 uM
Rattus norvegicus [32] = test: Inhibition of (R)-alpha-methyl histamine-induced dipsogenia in ip dosed rat; format: functional
[33] = molecular target: Histamine H2 receptor (Homo sapiens) (UniProt P25021); test: Inhibition of human histamine H2 receptor at 10 uM
Sequence of Histamine H2 receptor (Homo sapiens) (P25021 whole entry): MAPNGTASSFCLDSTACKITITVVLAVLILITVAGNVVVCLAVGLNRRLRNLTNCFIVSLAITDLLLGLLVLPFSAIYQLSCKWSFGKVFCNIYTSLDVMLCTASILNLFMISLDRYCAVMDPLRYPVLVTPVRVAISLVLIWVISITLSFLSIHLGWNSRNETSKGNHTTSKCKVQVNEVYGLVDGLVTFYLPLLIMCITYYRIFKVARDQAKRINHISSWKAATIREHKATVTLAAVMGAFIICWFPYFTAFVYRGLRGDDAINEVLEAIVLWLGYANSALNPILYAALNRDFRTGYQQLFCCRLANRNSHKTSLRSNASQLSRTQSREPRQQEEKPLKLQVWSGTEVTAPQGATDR

Rattus norvegicus [34] = test: Induction of wake promoting activity in EEG/EMG Sprague-Dawley rat model assessed as increase in waking time at 3 mg/kg, ip after 4 hrs; format: functional; settings: route intraperitoneal
Rattus norvegicus [35] = test: Induction of wake promoting activity in EEG/EMG Sprague-Dawley rat model assessed as increase in waking time at 10 mg/kg, ip after 7 hrs; format: functional; settings: route intraperitoneal

## C[C@@H]1CCCN1CCCOc1ccc(-c2ccc(=O)n(C)n2)cc1
[1]
  AUC(0-t) at 6 h: 538 ng·h/mL
[2]
  Kp: 3.5
[3]
  half-life: 138 min

## C[C@@H]1CCCN1CCCOc1ccc(-c2ccc(=O)n(-c3ncccn3)n2)cc1
[4]
  half-life: > 40 min
Cytochrome P450 3A4
  IC50: > 30 µM
Histamine H3 receptor [5]
  Ki: 0.0014 µM
[6]
  IC50: > 10 µM
Cytochrome P450 2C19
  IC50: > 30 µM
[7]
  half-life: > 40 min
Histamine H3 receptor [8]
  Ki: 0.0079 µM
Cytochrome P450 2D6
  IC50: > 30 µM
[9]
  Kp: 0.5
[10]
  half-life: 90 min
[11]
  half-life: > 40 min
[12]
  half-life: > 40 min
Cytochrome P450 1A2
  IC50: > 30 µM
Cytochrome P450 2C9
  IC50: > 30 µM
[13]
  clearance: 29 mL/min/kg
[14]
  bioavailability: 56%
[15]
  half-life: > 40 min
[16]
  Vd: 3.9 L/kg

## C[C@@H]1CCCN1CCCOc1ccc(-c2ccc(=O)n(C)n2)cc1F
[17]
  Cmax: 284 ng/mL
[4]
  half-life: > 40 min
Rattus norvegicus [18]
  Activity: Dose-dependent effect
Cytochrome P450 3A4
  IC50: > 30 µM
[19]
  inhibition: < 30%
Histamine H3 receptor [5]
  Ki: 0.0058 µM
Rattus norvegicus [20]
  Time: 157 min
[21]
  clearance: 38 mL/min/kg
[22]
  solubility: > 250 µg/mL
Histamine H3 receptor [23]
  Activity: Active
[24]
  inhibition: > 70%
Cytochrome P450 2C19
  IC50: > 30 µM
[7]
  half-life: > 40 min
[25]
  bioavailability: 42%
[1]
  AUC(0-t) at 6 h: 936 ng·h/mL
Histamine H3 receptor [8]
  Ki: 0.027 µM
Cytochrome P450 2D6
  IC50: > 30 µM
Histamine H3 receptor [26]
  EC50: 0.0013 µM
[27]
  solubility: > 250 µg/mL
Rattus norvegicus [28]
  Time: 184 min
[29]
  half-life: 72 min
[11]
  half-life: > 40 min
[30]
  Vd: 4.5 L/kg
[31]
  inhibition: < 30%
[12]
  half-life: > 40 min
Cytochrome P450 1A2
  IC50: > 30 µM
Cytochrome P450 2C9
  IC50: > 30 µM
[2]
  Kp: 3.4
Rattus norvegicus [32]
  ED50: 0.13 mg/kg
  inhibition: Dose-dependent effect
[15]
  half-life: > 40 min
[3]
  half-life: 96 min
[33]
  inhibition: < 30%

## C[C@@H](COc1ccc(-c2ccc(=O)n(C)n2)cc1)CN1CCC[C@H]1C
Histamine H3 receptor [5]
  Ki: 0.015 µM
Histamine H3 receptor [8]
  Ki: 0.052 µM

## Cc1cc(=O)[nH]nc1-c1ccc(OCCCN2CCC[C@H]2C)cc1
Histamine H3 receptor [5]
  Ki: 0.0029 µM
Histamine H3 receptor [8]
  Ki: 0.012 µM

## C[C@@H]1CCCN1CCCOc1ccc(-c2ccc(=O)[nH]n2)c(F)c1
Histamine H3 receptor [5]
  Ki: 0.016 µM
Histamine H3 receptor [8]
  Ki: 0.069 µM

## C[C@@H]1CCCN1CCCOc1ccc(-c2ccc(=O)n(C)n2)cc1Cl
Histamine H3 receptor [5]
  Ki: 0.0044 µM
Histamine H3 receptor [8]
  Ki: 0.014 µM

## C[C@@H]1CCCN1CCCOc1ccc(-c2ccc(=O)n(CC(F)(F)F)n2)cc1
Histamine H3 receptor [5]
  Ki: 0.0057 µM
Histamine H3 receptor [8]
  Ki: 0.011 µM

## C[C@@H]1CCCN1CCCOc1ccc(-c2cc(-c3ccccn3)c(=O)[nH]n2)cc1
Histamine H3 receptor [5]
  Ki: 0.0031 µM
Histamine H3 receptor [8]
  Ki: 0.01 µM
[9]
  Kp: < 1
[14]
  bioavailability: < 10%

## C[C@@H]1CCCN1CCCOc1ccc(-c2ccc(=O)n(-c3ccccn3)n2)cc1
Histamine H3 receptor [5]
  Ki: 0.01 µM
Histamine H3 receptor [8]
  Ki: 0.022 µM

## C[C@@H]1CCCN1CCCOc1ccc(-c2ccc(=O)n(CCF)n2)cc1
Histamine H3 receptor [5]
  Ki: 0.0034 µM
Histamine H3 receptor [8]
  Ki: 0.011 µM

## C[C@@H]1CCCN1CCCOc1ccc(-c2ccc(=O)[nH]n2)cn1
Histamine H3 receptor [5]
  Ki: 0.035 µM
Histamine H3 receptor [8]
  Ki: 0.07 µM

## Cc1cc(-c2ccc(OCCCN3CCC[C@H]3C)cc2)n[nH]c1=O
Histamine H3 receptor [5]
  Ki: 0.0034 µM
Histamine H3 receptor [8]
  Ki: 0.0087 µM

## C[C@@H]1CCCN1CCCOc1ccc(-c2ccc(=O)[nH]n2)cc1C#N
Histamine H3 receptor [5]
  Ki: 0.038 µM
Histamine H3 receptor [8]
  Ki: 0.111 µM

## C[C@H](COc1ccc(-c2ccc(=O)n(C)n2)cc1)CN1CCC[C@H]1C
[17]
  Cmax: 146 ng/mL
[4]
  half-life: > 40 min
Cytochrome P450 3A4
  IC50: > 30 µM
Histamine H3 receptor [5]
  Ki: 0.0024 µM
Rattus norvegicus [20]
  Time: 231 min
[21]
  clearance: 37 mL/min/kg
[22]
  solubility: > 250 µg/mL
Histamine H3 receptor [23]
  Activity: Active
[24]
  inhibition: 19%
Cytochrome P450 2C19
  IC50: > 30 µM
[7]
  half-life: > 40 min
[25]
  bioavailability: 38%
[1]
  AUC(0-t) at 6 h: 892 ng·h/mL
Histamine H3 receptor [8]
  Ki: 0.0046 µM
Cytochrome P450 2D6
  IC50: > 30 µM
Histamine H3 receptor [26]
  EC50: 0.0021 µM
[27]
  solubility: > 250 µg/mL
Rattus norvegicus [34]
  Time: 166 min
[29]
  half-life: 48 min
[11]
  half-life: > 40 min
[30]
  Vd: 2.5 L/kg
[12]
  half-life: > 40 min
Cytochrome P450 1A2
  IC50: > 30 µM
Rattus norvegicus [35]
  Time: 196 min
Cytochrome P450 2C9
  IC50: > 30 µM
[2]
  Kp: 2.5
Rattus norvegicus [32]
  ED50: 0.02 mg/kg
  inhibition: Dose-dependent effect
[15]
  half-life: > 40 min
[3]
  half-life: 258 min

## C[C@@H]1CCCN1CCCOc1c(F)cc(-c2ccc(=O)n(C)n2)cc1F
Histamine H3 receptor [5]
  Ki: 0.011 µM
Histamine H3 receptor [8]
  Ki: 0.041 µM

## C[C@@H]1CCCN1CCCOc1ccc(-c2ccc(=O)n(CCO)n2)cc1
Histamine H3 receptor [5]
  Ki: 0.003 µM
Histamine H3 receptor [8]
  Ki: 0.0095 µM

## COc1cc(OCCCN2CCC[C@H]2C)ccc1-c1ccc(=O)[nH]n1
Histamine H3 receptor [5]
  Ki: 0.152 µM
Histamine H3 receptor [8]
  Ki: 0.229 µM

## C[C@@H]1CCCN1CCCOc1ccc(-c2n[nH]c(=O)cc2-c2ccccn2)cc1
Histamine H3 receptor [5]
  Ki: 0.012 µM
Histamine H3 receptor [8]
  Ki: 0.07 µM
[9]
  Kp: < 1
[14]
  bioavailability: < 10%

## C[C@@H]1CCCN1CCCOc1c(F)cc(-c2ccc(=O)[nH]n2)cc1F
Histamine H3 receptor [5]
  Ki: 0.0071 µM
Histamine H3 receptor [8]
  Ki: 0.04 µM
